Measurements published in US7332482B2, “Method for treating benign prostatic hyperplasia” (BioXell S.p.A., priority 2003, dated 2008).
Entries after “also recorded” stand apart in the source; their conditions may differ.

Columns and labels:
rat ventral prostate [1] = assay: Ventral prostate growth in castrated, T enanthate-supplemented rats; assay type: in vivo; settings: castrated rats + T enanthate 30 mg/Kg/week; oral, 9 administrations; Compound A 10-300 μg/Kg, finasteride 10, 40 mg/Kg
Method: Male Sprague Dawley rats (28 days old) were purchased from Charles River Laboratories (Calco, Lecco, Italy). All animal experimentation described was conducted in accord with accepted standards of animal care. Castration was performed via the scrotal route under ketamine/xylazine anaesthesia.

BPH cells = assay: BPH cell proliferation assay; assay type: cell-based, human; settings: 48 h
Method: Human BPH cells, prepared, maintained and used as previously described in Crescioli C, et al. Journal of Clinical and Endocrinology Metabolism (2000) 85 p 2576-2583, were obtained from prostate tissues derived from 5 patients, who underwent suprapubic adenomectomy for BPH, after informed consent and approval by the Local Ethical Committee.
For all cell proliferation assay, 4×10^4 BPH cells were seeded onto 12-well plates in their growth medium, starved in red- and serum-free medium containing 0.1% BSA for 24 h, and then treated with specific stimuli for 48 h. Cells in phenol red- and serum-free medium containing 0.1% BSA were used as controls. Thereafter, cells were trypsinized, and each experimental point was derived from hemocytometer counting, averaging at least six different fields for each well, as previously reported (see Crescioli C, et al. Journal of Clinical and Endocrinology Metabolism (2000) 85 p 2576-2583). […] Growth assays were also carried out using a fixed concentration of androgens (10 nM) with or without Compound A (1 nM, 10 nM) or the anti-androgens finasteride (F, 1 nM) and cyproterone acetate (Cyp, 100 nM). Growth assays were also performed using a fixed concentration of T (10 nM) or GFs (10 ng/ml) with or without Compound A (10 nM). In the same experiment, each experimental point was repeated in triplicate or quadruplicate and experiments were performed 3 times. Results are expressed as % variation (mean±SEM) over the maximal T or GF-induced stimulation.

5α reductase type 1 = molecular target: T1, 5α reductase type 1 (Homo sapiens, UniProt P18405); assay: 5α reductase inhibition test in CHO 1827 cells; assay type: cell-based; settings: 10^−9 to 10^−5 M
T1 construct: host or cells: CHO 1827
T1 sequence (P18405 1-259): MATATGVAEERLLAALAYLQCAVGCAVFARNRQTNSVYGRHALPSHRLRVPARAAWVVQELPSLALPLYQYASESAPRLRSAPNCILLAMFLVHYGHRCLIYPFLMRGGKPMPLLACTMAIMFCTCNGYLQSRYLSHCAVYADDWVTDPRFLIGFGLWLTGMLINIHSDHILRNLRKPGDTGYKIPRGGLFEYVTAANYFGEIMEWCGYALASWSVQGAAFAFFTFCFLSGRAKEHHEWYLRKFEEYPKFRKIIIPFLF
Method: CHO-1827 and CHO-1829 cells, transfected with 5α reductase type 1 (5αR-1) or type 2 (5αR-2), respectively (see Steers W. Urology (2001) 58 p 17-24), were maintained in Ham's F12 medium supplemented with 5% FCS.
5α reductase inhibition assay was performed using CHO 1827 cells, transfected with 5αR-1, or CHO 1829 cells, transfected with 5αR-2, as described (see Guarna A, et al. Journal of Medicinal Chemistry (2000) 43 3718-3735.). Compound A was added in a concentration range from 10^−9 to 10^−5 M, using finasteride as a control inhibitor in each experiment.

bladder strips = assay: In vitro contractility of bladder strips from BOO rats; design: species or system rat; settings: strips from treated rats
Method: After completion of the cystometries, the rats were sacrificed by carbon monoxide asphyxiation followed by exsanguination. The abdomen was accessed through a lower midline incision whereafter the symphysis was opened. The bladder was carefully dissected free, and immediately placed in chilled Krebs solution, and strip preparations were dissected.
The bladder and urethra were separated at the level of the bladder neck, and semicircular strips were prepared from the middle third of the detrusor (1×2×5 mm). All preparations were used immediately after removal.
The strips were transferred to 5 ml tissue baths containing Krebs solution. The Krebs solution was maintained at 37° C. and bubbled continuously with a mixture of 95% O2 and 5% CO2, resulting in a pH of 7.4. The strips were suspended between two L-shaped hooks by means of silk ligatures. One hook was connected to a movable unit allowing adjustment of passive tension, and the other to a Grass FT03C (Grass Instruments Co, MA, USA) force transducer. Isometric tension was recorded using a Grass polygraph (7D). After mounting, the strips were stretched to a passive tension of 4 mN (the same tension for all preparations) and allowed to equilibrate for 45-60 min before further experiments were performed.
Electrical field stimulation (EFS) was accomplished by means of two platinum electrodes placed on either side of the preparations, and was performed using a Grass S48 or S88 stimulator, delivering single square wave pulses at selected frequencies. The train duration was 5 s, the pulse duration 0.8 ms, and the stimulation interval 2 min. The polarity of the electrodes was shifted after each pulse by means of a polarity changing unit.
Each experiment was started by exposing the preparations to a high K^+ (124 mM) Krebs solution until two reproducible contractions are obtained. […]

rat ventral prostate [2] = assay: Clusterin expression (Northern, immunohistochemistry) and TUNEL in rat ventral prostate; assay type: in vivo
Method: Total RNA was extracted using RNAFast from Molecular System (San Diego, Calif.). Blotting, labelling, hybridization conditions and probes (rat clusterin 1.5 Kb full-length cDNA and GAPDH 1.2 Kb full-length cDNA) were performed according to the reported procedures (Bettuzzi et al, Biochemical Journal, (1989), 257, p 293-296 and Marinelli et al, Biochemistry and Cell Biology, (1994), 72, p 515-521). Quantitation of the autoradiograms was obtained by densitometric scanning using an LKB Ultrascan XL densitometer.
All the cryostatic sections obtained from controls and treated rats were processed in parallel as previously described (Astancolle et al, Journal of Endocrinology, (2000), 167, p 197-204). For every experimental condition, 3 alternate sections from 3 different rat prostates were examined. […] Counterstaining was performed with haematoxylin, and cover slips were mounted with Eukitt (O. Kindler GmbH & Co, Germany). Digital high-magnification colour images were acquired by a CCD camera through the microscope.
DNA fragmentation in prostate cryostatic sections, assessed by terminal deoxynucleotidyl transferase (TdT)-mediated dUTP nick end-labelling (TUNEL), was performed using the In Situ Cell Death Detection Kit (POD, Roche) as recommended by the manufacturer. TUNEL positive apoptotic nuclei were documented by digital high-magnification colour images acquired by a CCD camera through the microscope. Counterstaining was performed with eosin, and cover slips were mounted with Eukitt (O Kindler GmbH & Co, Germany).

C=C1/C(=C\C=C2/CCC[C@]3(C)C([C@@H](C)C/C=C/C(O)(CC)CC)=CC[C@@H]23)C[C@@H](O)C[C@@H]1F [Compound A, 1-alpha-fluoro-25-hydroxy-16,23E-diene-26,27-bishomo-20-epi-cholecalciferol]
effect on T-stimulated prostate over-growth (ventral prostate weight) (rat ventral prostate [1]): completely blunted
effect on growth of androgen-unstimulated BPH cells (BPH cells; Compound A 1 nM): reduced growth
effect on DHT-stimulated BPH cell proliferation (BPH cells; DHT 10 nM, Compound A 1 nM, F 1 nM, Cyp 100 nM): antagonized; also recorded: significantly blocked
effect on T-stimulated BPH cell proliferation (BPH cells; T 10 nM, Compound A 1 nM, F 1 nM, Cyp 100 nM): antagonized; also recorded: significantly blocked
Imax, inhibition of T- or GF-stimulated BPH cell growth (BPH cells; T 10 nM, KGF or Des(1-3)IGF-I 10 ng/ml): 66.6±7.3%
maximal inhibition (Imax) of BPH cell growth (BPH cells; unstimulated BPH cells, Imax shared by both secosteroids): 43±1%
interference with 5α reductase type 1 (5α reductase type 1): did not interfere with either isoenzyme up to the micromolar range
response of bladder strips to EFS (bladder strips): beneficial effect
response of bladder strips to carbachol (bladder strips): beneficial effect
K response of bladder strips (bladder strips; high K+ 124 mM): beneficial effect
DNA fragmentation / apoptosis in ventral prostate (TUNEL) (rat ventral prostate [2]; castrated T-supplemented rats, 100 and 300 μg/Kg, 9 administrations): induced an evident nuclear fragmentation in epithelial and stromal cells; also recorded: induced massive apoptosis in the majority of epithelial and stromal cells
clusterin staining and apoptosis in prostate (immunohistochemistry, TUNEL) (rat ventral prostate [2]; intact adult rats, Compound A 10, 30, 100 μg/Kg, finasteride 40 mg/Kg): induced clusterin expression; also recorded: dose-dependently stained for clusterin
clusterin mRNA expression in ventral prostate (Northern) (rat ventral prostate [2]; intact rats, one month, 30 and 100 μg/Kg): induced a sustained increase
clusterin mRNA expression in ventral prostate (Northern) (rat ventral prostate [2]; orchidectomized T-supplemented rats, Compound A 300 and 100 μg/Kg, F 40 mg/Kg): partially blunted the T-induced down-regulation of clusterin gene expression
